Patent publication US9155765B2, “Establishment of patient- or person-specific cardiac myocyte cell lines from human induced pluripotent stem cells (iPSCs)” (Baylor Research Institute, priority 2011, dated 2015)

System: derived cardiac cell line
Test: Effect of hypertrophy inducing drugs on derived cardiac cell line (cell size change)
Format: cell-based, human
Settings: 24 hrs after drug administration; phase-contrast images before and after (FIG. 8)
Experimental: The effect of hypertrophy inducing drugs on derived cardiac cell line was tested. A response to cardiac toxic reagents is important in evaluating the properties of derived cardiac cell line and the future usage of the cells for testing cardiac toxic reagents as well as the mechanistic study on cardiomyopathy. Tumor necrosis factor (TNF)-α was used for the induction and compared the cell size changes at 24 hrs after drug administration.

**Q.** Tumor necrosis factor (TNF)-α [TNF-α] was tested. Which cell size changes did it give?
**A.** Its cell size changes is “increase in the sizes of treated cardiac cells”.
